Source: US6458815B2, “Sulfonamide compounds and methods of treating atherosclerosis and restenosis” (Warner-Lambert Company, priority 1998, dated 2002)

Legend:
[1] = tested on: Lp(a) production in HepG2^K17 cells; assay: LPA3 screen: inhibition of Lp(a) production in transfected HepG2 cells, Lp(a) in media by ELISA; assay type: cell-based; settings: Homo sapiens, 8 hours incubation, 0.3 to 50 μM compound, Lp(a) normalized for total protein
Description: The LPA3 screen is used to identify compounds that inhibit Lp(a) production. This screen employs permanently transfected HepG2 cells (HepG2^K17) that are generated using an apo(a) 17-kringle cDNA expression construct (pcDNA-AMP, In Vitrogen, Carlsbad, Calif.) in accordance with methods that are well-known in molecular biology.
HepG2^K17 cells are seeded in 96-well plates at a density of 75,000 cells per well in 0.25 mL of Dulbecco's Modified Eagle Media (DMEM) containing 10% fetal bovine serum (FBS). Seeded plates are incubated overnight in a 37° C., 5% CO2/95% O2 incubator. The media is removed, replaced with (1) fresh media, or (2) fresh media plus 0.3 to 50 μM of a compound of the present invention in 20 μL of PBS, and the plates returned to the incubator for 8 hours. After the additional 8 hours of incubation, Lp(a) is assayed in the media by ELISA. Cells are digested with 0.5N NaOH overnight and assayed for total protein. Lp(a) values are normalized for total protein content.

[2] = target: apolipoprotein(a), [apo(a)], apolipoproteinB-100, [apoB-100], coupling reaction that generates Lp(a) (Homo sapiens, UniProt P04114+P08519); assay: LPABC screen: lipoprotein(a) biochemical coupling assay, Lp(a) content by ELISA; settings: recombinant apo(a) 17-kringle (293 cell conditioned media) + HepG2 conditioned media, 67 minutes at 37° C., 0.3 to 50 μM compound
Description: The lipoprotein(a), [Lp(a)], biochemical coupling assay (LPABC) is used to characterize inhibitors of the apolipoprotein(a), [apo(a)], apolipoproteinB-100, [apoB-100], coupling reaction that generates Lp(a). Conditioned media from 293 cells (ATCC CRL-1573), permanently transfected with an apo(a) 17-kringle cDNA expression construct (pcDNA-AMP, In Vitrogen, Carlsbad, Calif.) using standard molecular biology techniques, was used as a source of recombinant apo(a) is diluted 1:3 with phosphate buffered saline (PBS) and 90 μL is pipetted into each well of a 96-well plate and placed into 37° C. incubator for 10 minutes. Twenty microliters of a 0.3 to 50 μM solution of a compound of the present invention in PBS is added to the warmed plate. Ninety microliters of HepG2 (ATCC HB-8065) cell conditioned media diluted 1:3 with PBS is added to the apo(a)/compound mixture and mixed by pipetting up and down 5 times. The reaction is incubated for 67 minutes in a 37° C. incubator. A 100 μL aliquot of the reaction is removed and assayed for its Lp(a) content by an enzyme linked immunosorbent assay (ELISA).

Row | melting point | IC50 [2] | Structure (SMILES) | IC50 [1]
1 | 142 to 143 °C | 3.7 µM | COc1ccc(S(=O)(=O)N(Cc2cc(C(C)(C)C)c(O)c(C(C)(C)C)c2)c2cccnc2)cc1 [Example 9, N-(3,5-Di-tert-butyl-4-hydroxy-benzyl)-4-methoxy-N-pyridin-3-yl-benzene Sulfonamide] | 5.8 µM
2 | 143 to 145 °C | 4.12 µM | CC(C)(C)c1cc(CN(c2cccnc2)S(=O)(=O)c2ccccc2)cc(C(C)(C)C)c1O [Example 11, N-(3,5-Di-tert-butyl-4-hydroxy-benzyl)-3-N-pyridin-3-yl-benzenesulfonamide] | 16.2 µM
3 | 152 to 153 °C | 2.1 µM | Cc1ccc(S(=O)(=O)N(Cc2cc(C(C)(C)C)c(O)c(C(C)(C)C)c2)c2ccc(Cl)nc2)cc1 [Example 16, N-(6-Chloro-pyridin-3-yl)-N-(3,5-di-tert-butyl-4-hydroxybenzyl)-4-methyl-benzenesulfonamide] | –
4 | 121 to 123 °C | 3.94 µM | Cc1ccc(S(=O)(=O)N(Cc2cc(C(C)(C)C)c(O)c(C(C)(C)C)c2)c2cccnc2)cc1 [Example 3, N-(3,5-Di-tert-butyl-4-hydroxy-benzyl)-4-methyl-N-pyridin-3-yl-benzenesulfonamide] | 6.9 µM
5 | 159 to 160 °C | 2.6 µM | CC(C)(C)c1cc(CN(c2cccnc2)S(=O)(=O)c2ccc([N+](=O)[O-])cc2)cc(C(C)(C)C)c1O [Example 5, N-(3,5-Di-tert-butyl-4-hydroxy-benzyl)-4-nitro-N-pyridin-3-yl-benzenesulfonamide] | 9.4 µM
6 | 99 to 107 °C | 4 µM | CC(C)(C)c1cc(CN(c2cccnc2)S(=O)(=O)c2cccc([N+](=O)[O-])c2)cc(C(C)(C)C)c1O [Example 10, N-(3,5-Di-tert-butyl-4-hydroxy-benzyl)-3-nitro-N-pyridin-3-yl-benzenesulfonamide] | 7.4 µM
7 | 167 to 169 °C | 3.5 µM | CC(=O)Nc1ccc(S(=O)(=O)N(Cc2cc(C(C)(C)C)c(O)c(C(C)(C)C)c2)c2cccnc2)cc1 [Example 8, N-(3,5-Di-tert-butyl-4-hydroxy-benzyl)-4-acetamido-N-pyridin-3-yl-benzenesulfonamide] | 12.5 µM
8 | 155 to 156 °C | 11.8 µM | CC(C)(C)c1ccc(S(=O)(=O)N(Cc2cc(C(C)(C)C)c(O)c(C(C)(C)C)c2)c2cccnc2)cc1 [Example 13, N-(3,5-Di-tert-butyl-4-hydroxy-benzyl)-4-tert-butyl-N-pyridin-3-yl-benzenesulfonamide] | 23.6 µM
9 | – | 1.92 µM | CCOC(=O)C(c1cc(C(C)(C)C)c(O)c(C(C)(C)C)c1)N(CC1CCCCC1)S(C)(=O)=O (stereo not drawn) [Example 2, (Cyclohexylmethyl-methanesulfonyl-amino)-(3,5-Di-tert-butyl-4-hydroxy-phenyl)-acetic Acid Ethyl Ester] | 27.2 µM
10 | 160 to 171 °C | 7.1 µM | CC(C)(C)c1cc(CN(c2cccnc2)S(=O)(=O)c2ccc3ccccc3c2)cc(C(C)(C)C)c1O [Example 17, N-(3,5-di-tert-butyl-4-hydroxybenzyl)-2-naphthalene-N-pyridin-3-yl-sulfonamide] | –
11 | 133 to 134 °C | 5.58 µM | CC(C)(C)c1cc(CN(c2cccnc2)S(C)(=O)=O)cc(C(C)(C)C)c1O [Example 12, N-(3,5-Di-tert-butyl-4-hydroxy-benzyl)-N-pyridin-3-yl-methanesulfonamide] | 41.2 µM
12 | 127 to 129 °C | 2.42 µM | COc1ccc(N(Cc2cc(C(C)(C)C)c(O)c(C(C)(C)C)c2)S(=O)(=O)c2ccc(C)cc2)cn1 [Example 18, N-(3,5-di-tert-butyl-4-hydroxy-benzyl)-N-(6-methoxy-pyridin-3-yl)-4methyl-benzenesulfonamide] | –
13 | – | 2.6 µM | CC(C)(C)c1cc(CN(c2cccnc2)S(=O)(=O)c2ccc(F)cc2)cc(C(C)(C)C)c1O [Example 4, N-(3,5-Di-tert-butyl-4-hydroxy-benzyl)-4-fluoro-N-pyridin-3-yl-benzenesulfonamide] | 7.5 µM
14 | 118 to 120 °C | 3.5 µM | CC(C)(C)c1cc(CN(c2cccnc2)S(=O)(=O)c2cccs2)cc(C(C)(C)C)c1O [Example 7, Thiophene-2-sulfonic Acid (3,5-di-tert-butyl-4-hydroxy-benzyl)-pyridin-3-yl-amide] | 8.9 µM
15 | 105 to 107 °C | 2.43 µM | CC(C)(C)c1cc(CN(c2cccnc2)S(=O)(=O)c2ccccc2Br)cc(C(C)(C)C)c1O [Example 15, N-(3,5-di-tert-butyl-4-hydroxybenzyl)-2-bromo-N-pyridin-3-yl-benzenesulfonamide] | –
16 | 117 to 119 °C | 2.1 µM | Cc1ccc(S(=O)(=O)N(Cc2cc(C(C)(C)C)c(O)c(C(C)(C)C)c2)c2cccnc2Cl)cc1 [Example 14, N-(2-Chloro-pyridin-3-yl)-N-(3,5-di-tert-butyl-4-hydroxy-benzyl)-4-methyl-benzenesulfonamide] | –
17 | – | 3.15 µM | COc1ccc(N(Cc2cc(C(C)(C)C)c(O)c(C(C)(C)C)c2)S(=O)(=O)c2cccs2)cn1 [Example 6, Thiophene-2-sulfonic Acid (3,5-di-tert-butyl-4-hydroxy-benzyl)-6-methoxy-pyridin-3-yl-amide] | –
18 | – | 1.66 µM | CC(C)(C)c1cc(CN(c2cccnc2)S(=O)(=O)c2ccc(-c3ccccn3)s2)cc(C(C)(C)C)c1O [Example 1, 5-Pyridin-2-yl-thiophene-2-sulfonic Acid (3,5-di-tert-butyl-4-hydroxy-benzyl)-pyridin-3-yl-amide] | –
19 | 129 to 131 °C | 2.76 µM | CC(C)(C)c1cc(CN(c2cccnc2)S(=O)(=O)c2cccc(Br)c2)cc(C(C)(C)C)c1O [Example 19, N-(3,5-di-tert-butyl-4-hydroxybenzyl)-3-bromo-N-pyridin-3-yl-benzenesulfonamide] | –
